Laboratory results: article PMC7407272, “Induction of Lysosome Membrane Permeabilization as a Therapeutic Strategy to Target Pancreatic Cancer Stem Cells” (Cancers, 2020)
Read-outs that look alike come from different tables or passages of the source.

Legend:
[1] = system: sphere-derived PDAC2 cells; assay: Tumor initiating capacity of pre-treated cells injected subcutaneously; format: in vivo, NU-Foxn1nu nude mice; details: cells treated 3 days with 0.1 µg/mL GEM or compound at 1.25 µM, then injected subcutaneously
Method: Female 6- to 8-week-old NU-Foxn1nu nude mice (Envigo, Spain) were subcutaneously injected with control or pre-treated 1 × 10^4 PDAC cells in 50 µL of Matrigel^TM (Corning). Tumor growth was monitored bi-weekly for up to 10 weeks. For Siramesine experiments, mice were subcutaneously implanted with PDAC1 and PDAC3 PDXs. After 4 weeks of tumor growth, mice were randomized into treatment groups (5 mice per group). Mice were treated with Siramesine twice a week (30 mg/kg by oral gavage formulated in 0.5% methylcellulose 15 cP in 0.9% NaCl solution) for ~4 weeks. Gemcitabine (GEMZAR®, Eli Lilly, Indianapolis, IN, USA) was administered twice a week (125 mg/kg i.p.) for ~4 weeks. Tumor volumes (mm^3) were determined twice per week using a digital caliper. Mice were sacrificed at 24 days post treatment initiation and tumors were extracted and analyzed by flow cytometry as described above. For second generation tumor formation, 1000 and 100 cells of indicated treatment groups were resuspended in Matrigel ^TM and injected subcutaneously in recipient NU-Foxn1nu nude mice and tumor formation was monitored for 10 weeks. Mice were housed according to institutional guidelines and all experiments were performed in compliance with the institutional guidelines for the welfare of experimental animals approved by the Universidad Autónoma de Madrid Ethics Committee (CEI 60-1057-A068) or by the Instituto de Salud Carlos III Ethics Committee (CBA12_2014-v3) and La Comunidad de Madrid (PROEX 335/14 or PROEX 53/14) and in accordance with the guidelines for Ethical Conduct in the Care and Use of Animals as stated in The International Guiding Principles for Biomedical Research involving Animals, developed by the Council for International Organizations of Medical Sciences (CIOMS).

[2] = system: PDAC1 cultures; assay: Sphere formation assay; format: cell-based, human; details: 1.25 or 2.5 µM
Excerpt: (§1) Pancreatic CSC spheres were generated as previously described in ultra-low attachment plates (Corning) using CSC media: serum-free DMEM/F12 medium (1:1; #21331-020; Gibco, Waltham, MA, USA), supplemented with Pen/Strep (1:100; #1500-063; Gibco, Waltham, MA, USA), Fungizone (1:250; #15290-018; Gibco), L-Glutamine (1:100; #25030-024; Gibco, Waltham, MA, USA), B-27 (1:50; #17504-044; Gibco, Waltham, MA, USA) and basic fibroblast growth factor (FGF-b) (1:5000; Gibco, Waltham, MA, USA). All cell culture was carried out at 37 °C in a 5% CO2 humidified incubator. To quantify spheres of > 40 μm, 1 mL of sample volume was analyzed with a CASY® Cell Counter (Roche Applied Sciences, Mannheim, Germany). The CASY® Cell Counter measuring principle is based on a capillary particle counter with pulse area analysis, that permits the determination of cell count, cell concentration, cell volume (peak), and average cell diameter, specifically diameters of 40–80 μm, 80–120 μm and >120 μm.

[3] = system: PDAC3 cultures; assay: Sphere formation assay; format: cell-based, human; details: 1.25 or 2.5 µM
Excerpt: as §1

[4] = biological target: PIM3 (Homo sapiens, UniProt Q86V86); assay: PIM kinase activity assay; format: biochemical
Method: (§2) PIM1/3 kinase activities were measured as previously described in Martínez-Gonzalez et al.. HASPIN activity was measured using the commercial ADP GLO assay (Promega), a homogeneous assay measuring ADP accumulation, as a universal product of kinase activity. The assay was done following general manufacturer recommendations and adapting protein to optimal conditions.

[5] = biological target: PIM1 (Homo sapiens, UniProt P11309); assay: PIM kinase activity assay; format: biochemical
PIM1, sequence (P11309 whole entry): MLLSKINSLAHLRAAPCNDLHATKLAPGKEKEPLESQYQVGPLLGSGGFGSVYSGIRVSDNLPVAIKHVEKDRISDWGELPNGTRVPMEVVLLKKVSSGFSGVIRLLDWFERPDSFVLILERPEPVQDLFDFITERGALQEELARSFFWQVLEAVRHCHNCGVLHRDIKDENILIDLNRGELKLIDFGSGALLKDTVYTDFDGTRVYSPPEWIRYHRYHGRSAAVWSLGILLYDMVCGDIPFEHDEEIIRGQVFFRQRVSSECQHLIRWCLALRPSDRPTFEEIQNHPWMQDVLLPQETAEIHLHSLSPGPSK
Method: as §2

[6] = biological target: T1, HASPIN (Homo sapiens, UniProt Q8TF76); assay: HASPIN ADP GLO kinase assay; format: biochemical; design: purchased ProQinase, Freiburg, Germany; details: 150 μM ATP
T1 sequence (Q8TF76 1-798): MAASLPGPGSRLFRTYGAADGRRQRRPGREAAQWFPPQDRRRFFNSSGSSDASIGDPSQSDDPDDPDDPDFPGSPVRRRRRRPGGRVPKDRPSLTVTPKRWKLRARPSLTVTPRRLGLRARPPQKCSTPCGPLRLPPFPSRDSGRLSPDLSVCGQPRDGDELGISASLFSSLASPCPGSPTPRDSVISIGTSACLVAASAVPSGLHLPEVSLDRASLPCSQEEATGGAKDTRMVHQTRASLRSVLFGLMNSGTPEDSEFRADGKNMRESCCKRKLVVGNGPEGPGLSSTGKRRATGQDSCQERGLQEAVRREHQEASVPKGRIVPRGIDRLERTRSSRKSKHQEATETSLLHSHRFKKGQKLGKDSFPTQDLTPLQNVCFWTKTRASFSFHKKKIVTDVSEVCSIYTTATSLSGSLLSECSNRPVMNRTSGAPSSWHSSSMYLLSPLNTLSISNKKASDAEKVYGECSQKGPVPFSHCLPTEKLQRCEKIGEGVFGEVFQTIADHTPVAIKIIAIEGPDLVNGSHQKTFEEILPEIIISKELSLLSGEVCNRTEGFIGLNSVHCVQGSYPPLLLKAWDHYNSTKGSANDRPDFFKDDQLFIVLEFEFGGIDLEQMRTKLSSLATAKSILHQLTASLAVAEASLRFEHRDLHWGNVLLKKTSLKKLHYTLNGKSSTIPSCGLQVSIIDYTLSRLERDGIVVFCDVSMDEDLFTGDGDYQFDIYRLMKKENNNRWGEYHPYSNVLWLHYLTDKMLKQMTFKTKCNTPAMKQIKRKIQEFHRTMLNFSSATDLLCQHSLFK
Method: as §2

| IC50 [4] [µM] | IC50 [5] [µM] | IC50 [6] [µM] | SMILES | tumor formation / growth from pre-treated cells [1] | sphere forming capacity [2] | sphere forming capacity [3] | IC50 ([4]; kinase orthogonal assay) [µM] | IC50 ([5]; kinase orthogonal assay) [µM] | IC50 ([6]; kinase orthogonal assay) [µM] |
| --- | --- | --- | --- | --- | --- | --- | --- | --- | --- |
|  |  |  | CN1CCC(CNc2ccc3ncc(C(=O)Nc4cccc(OC(F)(F)F)c4)n3n2)CC1 [Cpd 2] | reduced | decreased sphere forming capacity | decreased sphere forming capacity | 0.129 | 0.098 | 0.915 |
|  |  |  | Fc1ccc(-n2cc(CCCCN3CCC4(CC3)OCc3ccccc34)c3ccccc32)cc1 [siramesine] |  | decreased sphere forming capacity | decreased sphere forming capacity |  |  |  |
| > 10 | > 10 | > 10 | COc1nc2ccc(NCC3CCN(C)CC3)nn2c1C(=O)Nc1cccc(OC(F)(F)F)c1 [Cpd 1] | complete inhibition in tumor formation |  |  |  |  |  |
